Results: patent US12679802B2, “Malonamides and their use as herbicides” (BASF SE, priority 2021, dated 2026)

Key:
AVEFA = experiment: greenhouse herbicidal test, post-emergence treatment; type: in vivo, Avena fatua; conditions: post-emergence method, scale from 0 to 100
Description: (§1) The seeds of the test plants were sown separately for each species. For the pre-emergence treatment, the active ingredients, which had been suspended or emulsified in water, were applied directly after sowing by means of finely distributing nozzles. The containers were irrigated gently to promote germination and growth and subsequently covered with transparent plastic hoods until the test plants had rooted. This cover caused uniform germination of the test plants, unless this had been impaired by the active ingredients. For the post-emergence treatment, the test plants were first grown to a height of 3 to 15 cm, depending on the plant habit, and only then treated with the active ingredients which had been suspended or emulsified in water. For this purpose, the test plants were either sown directly and grown in the same containers, or they were first grown separately as seedlings and transplanted into the test containers a few days prior to treatment. Depending on the species, the test plants were kept at 10-25° C. or 20-35° C., respectively. The test period extended over 2 to 4 weeks. During this time, the test plants were tended, and their response to the individual treatments was evaluated. Evaluation was carried out using a scale from 0 to 100. 100 means no emergence of the test plants, or complete destruction of at least the aerial moieties, and 0 means no damage, or normal course of growth. A good herbicidal activity is given at values of 65 to 90 and a very good herbicidal activity is given at values of 90 to 100. The test plants used in the greenhouse experiments were of the following species: [table]

APESV = experiment: greenhouse herbicidal test, pre-emergence treatment; type: in vivo, Apera spica-venti; conditions: pre-emergence method, scale from 0 to 100
Description: as §1, with “100 means no emergence of the test plants, or complete destruction of at least the aerial moieties, and 0 means no damage, or normal course of growth. A good herbicidal activity is given at values of 65 to 90 and a very good herbicidal activity is given at values of 90 to 100. The test plants used in the greenhouse experiments were of the following species: [table]” left out

AMARE = experiment: greenhouse herbicidal test, post-emergence treatment; type: in vivo, Amaranthus retroflexus; conditions: post-emergence method, application rate 0.500 kg/ha; scale from 0 to 100
Description: as §1, with “100 means no emergence of the test plants, or complete destruction of at least the aerial moieties, and 0 means no damage, or normal course of growth. A good herbicidal activity is given at values of 65 to 90 and a very good herbicidal activity is given at values of 90 to 100. The test plants used in the greenhouse experiments were of the following species: [table]” left out

ECHCG [1] = experiment: as above; type: in vivo, Echinocloa crus-galli; conditions: post-emergence method, application rate 1.000 kg/ha; scale from 0 to 100
Description: as §1, with “100 means no emergence of the test plants, or complete destruction of at least the aerial moieties, and 0 means no damage, or normal course of growth. A good herbicidal activity is given at values of 65 to 90 and a very good herbicidal activity is given at values of 90 to 100. The test plants used in the greenhouse experiments were of the following species: [table]” left out

SETVI = experiment: as above; type: in vivo, Setaria viridis; conditions: post-emergence method, application rate 1.000 kg/ha; scale from 0 to 100
Description: as §1, with “100 means no emergence of the test plants, or complete destruction of at least the aerial moieties, and 0 means no damage, or normal course of growth. A good herbicidal activity is given at values of 65 to 90 and a very good herbicidal activity is given at values of 90 to 100. The test plants used in the greenhouse experiments were of the following species: [table]” left out

ALOMY = experiment: as above; type: in vivo, Alopercurus myosuroides; conditions: post-emergence method, scale from 0 to 100
Description: as §1, with “100 means no emergence of the test plants, or complete destruction of at least the aerial moieties, and 0 means no damage, or normal course of growth. A good herbicidal activity is given at values of 65 to 90 and a very good herbicidal activity is given at values of 90 to 100. The test plants used in the greenhouse experiments were of the following species: [table]” left out

ABUTH = experiment: as above; type: in vivo, Abutilon theophrasti; conditions: post-emergence method, application rate 0.250 kg/ha; scale from 0 to 100
Description: as §1, with “100 means no emergence of the test plants, or complete destruction of at least the aerial moieties, and 0 means no damage, or normal course of growth. A good herbicidal activity is given at values of 65 to 90 and a very good herbicidal activity is given at values of 90 to 100. The test plants used in the greenhouse experiments were of the following species: [table]” left out

ECHCG [2] = experiment: greenhouse herbicidal test, pre-emergence treatment; type: in vivo, Echinocloa crus-galli; conditions: pre-emergence method, scale from 0 to 100
Description: as §1, with “100 means no emergence of the test plants, or complete destruction of at least the aerial moieties, and 0 means no damage, or normal course of growth. A good herbicidal activity is given at values of 65 to 90 and a very good herbicidal activity is given at values of 90 to 100. The test plants used in the greenhouse experiments were of the following species: [table]” left out

Compound: COC(=O)CCCNC(=O)C(F)(F)C(=O)Nc1cc(Cl)cc(Cl)c1 [I.1, methyl 4-[[3-(3,5-dichloroanilino)-2,2-difluoro-3-oxo-propanoyl]amino]butanoate]
- herbicidal activity against AVEFA (AVEFA; application rate 0.500 kg/ha): good (A good herbicidal activity is given at values of 65 to 90)

Compound: CC(CC(=O)OC(C)C)NC(=O)C(C)(F)C(=O)Nc1cc(F)cc(Cl)c1 (stereo not shown) [I.16]
- herbicidal activity against APESV (APESV; application rate 0.250 kg/ha): good (A good herbicidal activity is given at values of 65 to 90)

Compound: COC(=O)CC(C)NC(=O)C(F)(C(=O)Nc1cc(Cl)cc(Cl)c1)C(C)O (stereo not shown) [I.6]
- herbicidal activity against AMARE (AMARE): very good (a very good herbicidal activity is given at values of 90 to 100)

Compound: COC(=O)CC(C)NC(=O)C(F)(Br)C(=O)Nc1cc(Cl)cc(Cl)c1 (stereo not shown) [I.12]
- herbicidal activity against ECHCG (ECHCG [1]): very good (a very good herbicidal activity is given at values of 90 to 100)
- herbicidal activity against AVEFA (AVEFA; application rate 1.000 kg/ha): very good (a very good herbicidal activity is given at values of 90 to 100)
- herbicidal activity against SETVI (SETVI): very good (a very good herbicidal activity is given at values of 90 to 100)

Compound: COC(=O)C[C@H](C)NC(=O)C(F)(F)C(=O)Nc1cc(Cl)cc(Cl)c1 [I.2, methyl (3S)-3-[[3-(3,5-dichloroanilino)-2,2-difluoro-3-oxo-propanoyl]amino]butanoate]
- herbicidal activity against APESV (APESV; application rate 0.500 kg/ha): good (A good herbicidal activity is given at values of 65 to 90)

Compound: COC(=O)[C@@H]1CCC(NC(=O)C(F)(F)C(=O)Nc2cc(Cl)cc(Cl)c2)C1 (stereo partly drawn) [I.3, methyl (1R)-3-[[3-(3,5-dichloroanilino)-2,2-difluoro-3-oxo-propanoyl]amino]cyclopentanecarboxylate]
- herbicidal activity against ALOMY (ALOMY; application rate 0.250 kg/ha): very good (a very good herbicidal activity is given at values of 90 to 100)
- herbicidal activity against ABUTH (ABUTH): good (A good herbicidal activity is given at values of 65 to 90)
- herbicidal activity against ECHCG (ECHCG [2]; application rate 0.250 kg/ha): good (A good herbicidal activity is given at values of 65 to 90)

Compound: COC(=O)C[C@H](C)NC(=O)C(F)C(=O)Nc1cc(Cl)cc(Cl)c1 (stereo partly drawn) [I.5, methyl (3S)-3-[[3-(3,5-dichloroanilino)-2-fluoro-3-oxo-propanoyl]amino]butanoate]
- herbicidal activity against AVEFA (AVEFA; application rate 1.000 kg/ha): good (A good herbicidal activity is given at values of 65 to 90)
- herbicidal activity against ALOMY (ALOMY; application rate 1.000 kg/ha): very good (a very good herbicidal activity is given at values of 90 to 100)
- herbicidal activity against ECHCG (ECHCG [2]; application rate 1.000 kg/ha): good (A good herbicidal activity is given at values of 65 to 90)
